The values that follow come from US10933056B2, “3-(1H-pyrazol-4-yl)pyridine allosteric modulators of the M4 muscarinic acetylcholine receptor” (Merck Sharp & Dohme Corp., priority 2015, dated 2021).

This assay concerns the target T1, human M4 muscarinic acetylcholine receptor (Homo sapiens, UniProt P08173).
T1 construct: expressed in transfected cells; host or cells: CHO-K1
T1 sequence (P08173 1-479): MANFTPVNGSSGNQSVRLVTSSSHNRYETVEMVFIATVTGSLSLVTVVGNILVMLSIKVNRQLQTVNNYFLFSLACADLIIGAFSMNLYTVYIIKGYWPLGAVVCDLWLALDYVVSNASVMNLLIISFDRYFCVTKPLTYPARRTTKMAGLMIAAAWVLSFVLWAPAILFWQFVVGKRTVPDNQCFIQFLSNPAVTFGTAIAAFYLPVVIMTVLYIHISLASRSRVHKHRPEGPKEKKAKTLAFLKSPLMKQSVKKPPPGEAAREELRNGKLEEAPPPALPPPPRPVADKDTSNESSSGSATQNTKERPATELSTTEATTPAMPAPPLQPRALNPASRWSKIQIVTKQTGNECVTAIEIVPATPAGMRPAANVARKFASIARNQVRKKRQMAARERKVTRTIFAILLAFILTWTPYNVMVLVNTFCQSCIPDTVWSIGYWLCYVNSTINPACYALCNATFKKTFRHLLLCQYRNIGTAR
Briefly: human FLIPR-based M4 PAM assay (calcium mobilization in CHO-K1 cells with human M4 receptor and Gαqi5). It counts as cell-based. Particulars: inflection point of dose response curve, acetylcholine at 20% of maximum response, FLIPR Tetra, read-out: M4 PAM IP. A digest of the protocol: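 CHO-K1 cells stably expressing human M4 and chimeric Gαqi5 were dye-loaded ~1 h at 37° C. Test compound was added with fluorescence recorded 4 min, then acetylcholine at EC20 (sometimes a further EC70 addition) with reading 3.5 min. Value is the inflection point of a 4-parameter logistic fit.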
In general terms: Calcium assays in cells follow changes in intracellular calcium, usually with a dye or a luminescent sensor.

As for `CC1(Cn2cc(-c3ccc(C(N)=O)nc3-c3ccc4c(c3)C(=O)NC4)cn2)CCCC1` [Example 113A, 5-(1-((1-methylcyclopentyl)methyl)-1H-pyrazol-4-yl)-6-(3-oxoisoindolin-5-yl)picolinamide], the EC50 stood at 205 nM.
Turning to `COCCN1Cc2ccc(-c3nc4c(cc3-c3cnn(CC5(C)CCCC5)c3)CCC4)cc2C1=O` [Example 73, 2-(2-methoxyethyl)-6-(3-(1-((1-methylcyclopentyl)methyl)-1H-pyrazol-4-yl)-6,7-dihydro-5H-cyclopenta[b]pyridin-2-yl)isoindolin-1-one], the EC50 turned out to be 52 nM.
The value for `CC1(Cn2cc(-c3ccc(Cl)nc3-c3cnc4c(c3)C(=O)N(CC3CC3)C4)cn2)CCCC1` [Example 106, 3-(6-chloro-3-(1-((1-methylcyclopentyl)methyl)-1H-pyrazol-4-yl)pyridin-2-yl)-6-(cyclopropylmethyl)-6,7-dihydro-5H-pyrrolo[3,4-b]pyridin-5-one] was 43 nM.
On to `Cc1ccc(-c2cnn(CC3CCCC3)c2)c(-c2ccc3c(c2)C(=O)N(CC2CC2)C3)n1` [Example 3, 6-(3-(1-(cyclopentylmethyl)-1H-pyrazol-4-yl)-6-methylpyridin-2-yl)-2-(cyclopropylmethyl)isoindolin-1-one], for which the EC50 came to 38 nM.
In the case of `Cc1cc(-c2cnn(CC3(C)CCCC3)c2)c(-c2cnc3c(c2)C(=O)N(C)C3)nc1C#N` [Example 112, 3-methyl-6-(6-methyl-5-oxo-6,7-dihydro-5H-pyrrolo[3,4-b]pyridin-3-yl)-5-(1-((1-methylcyclopentyl)-methyl)-1H-pyrazol-4-yl)picolinonitrile] it was 27 nM; in that of `CC1(Cn2cc(-c3ccc(C#N)nc3-c3cnc4c(c3)C(=O)N(CCO)C4)cn2)CCCC1` [Example 129, 6-(6-(2-Hydroxyethyl)-5-oxo-6,7-dihydro-5H-pyrrolo[3,4-b]pyridin-3-yl)-5-(1-((1-methylcyclopentyl)methyl)-1H-pyrazol-4-yl)picolinonitrile], 39 nM; in that of `Cc1cc(-c2cnn(CC3(C)CCCC3)c2)c(-c2ccc3c(c2)C(=O)N(C)C3)nc1CF` [Example 114, 6-(6-(Fluoromethyl)-5-methyl-3-(1-((1-methylcyclopentyl)methyl)-1H-pyrazol-4-yl)pyridin-2-yl)-2-methylisoindolin-1-one], 57 nM.
Consider `CC1(Cn2cc(-c3ccc(C#N)nc3-c3ccc4c(c3)C(=O)N(CCF)C4)cn2)CCCC1` [Example 42, 6-(2-(2-fluoroethyl)-3-oxoisoindolin-5-yl)-5-(1-((1-methylcyclopentyl)methyl)-1H-pyrazol-4-yl)picolinonitrile], for which the EC50 is 37 nM.
Consider `CN1Cc2ccc(-c3nc(C#N)ccc3-c3cnn(CC4(C)CCCC4)c3)cc2C1=O` [Example 2, 6-(2-Methyl-3-oxoisoindolin-5-yl)-5-(1-((1-methylcyclopentyl)methyl)-1H-pyrazol-4-yl)picolinonitrile], for which the EC50 was 16 nM.
In the case of `Cc1ccc(-c2cnn(CC3(C)CCCC3)c2)c(-c2ccc3c(c2)C(=O)N(C2CC2)C3)n1` [Example 28, 2-cyclopropyl-6-(6-methyl-3-(1-((1-methylcyclopentyl)methyl)-1H-pyrazol-4-yl)pyridin-2-yl)isoindolin-1-one] it was 10 nM; in that of `CC1(Cn2cc(-c3cc4c(nc3-c3ccc5c(c3)C(=O)N(CCC#N)C5)CCC4)cn2)CCCC1` [Example 56, 3-(6-(3-(1-((1-methylcyclopentyl)methyl)-1H-pyrazol-4-yl)-6,7-dihydro-5H-cyclopenta[b]pyridin-2-yl)-1-oxoisoindolin-2-yl)propanenitrile], 72 nM.
The value for `Cc1cc(-c2cnn(CC3(C)CCCC3)c2)c(-c2ccc3c(c2)C(=O)N(C)C3)nc1F` [Example 53, 6-(6-fluoro-5-methyl-3-(1-((1-methylcyclopentyl)methyl)-1H-pyrazol-4-yl)pyridin-2-yl)-2-methylisoindolin-1-one] was 61 nM.
On to `Cc1cc(-c2cnn(CC3(C)CCCC3)c2)c(-c2cnc3c(c2)C(=O)N(C)C3)nc1F` [Example 1, 3-(6-Fluoro-5-methyl-3-(1-((1-methylcyclopentyl)methyl)-1H-pyrazol-4-yl)pyridin-2-yl)-6-methyl-6,7-dihydro-5H-pyrrolo[3,4-b]pyridin-5-one], for which the EC50 was determined as 39 nM.
Take `CC1(Cn2cc(-c3ccc(C#N)nc3-c3cnc4c(c3)C(=O)N(CCF)C4)cn2)CCCC1` [Example 103, 6-(6-(2-fluoroethyl)-5-oxo-6,7-dihydro-5H-pyrrolo[3,4-b]pyridin-3-yl)-5-(1-((1-methylcyclopentyl)methyl)-1H-pyrazol-4-yl)picolinonitrile]: the EC50 stood at 33 nM.
In the case of `NS(=O)(=O)c1ccc(CCN2Cc3ccc(-c4ncccc4-c4cnn(CC5CCCC5)c4)cc3C2=O)cc1` [Example 91, 4-(2-(6-(3-(1-(cyclopentylmethyl)-1H-pyrazol-4-yl)pyridin-2-yl)-1-oxoisoindolin-2-yl)ethyl)benzenesulfonamide] it was 49 nM; in that of `Cc1cc(-c2cnn(CC3(C)CCCC3)c2)c(-c2ccc3c(c2)C(=O)N(C)C3)nc1Cl` [Example 38, 6-(6-chloro-5-methyl-3-(1-((1-methylcyclopentyl)methyl)-1H-pyrazol-4-yl)pyridin-2-yl)-2-methylisoindolin-1-one], 33 nM.
The value for `CN1Cc2ccc(-c3nc(F)ccc3-c3cnn(CC4(C)CCCC4)c3)cc2C1=O` [Example 36, 6-(6-fluoro-3-(1-((1-methylcyclopentyl)methyl)-1H-pyrazol-4-yl)pyridin-2-yl)-2-methylisoindolin-1-one] was 6 nM.
In the case of `CN1Cc2ccc(-c3nc(F)ccc3-c3cnn(CC4CCCC4)c3)cc2C1=O` [Example 22, 6-(3-(1-(cyclopentylmethyl)-1H-pyrazol-4-yl)-6-fluoropyridin-2-yl)-2-methylisoindolin-1-one] it was 28 nM.
As to `CC1(Cn2cc(-c3cc4c(nc3-c3cnc5c(c3)C(=O)N(CCF)C5)CCC4)cn2)CCCC1` [Example 66, 6-(2-fluoroethyl)-3-(3-(1-((1-methylcyclopentyl)methyl)-1H-pyrazol-4-yl)-6,7-dihydro-5H-cyclopenta[b]pyridin-2-yl)-6,7-dihydro-5H-pyrrolo[3,4-b]pyridin-5-one], the EC50 is 39 nM.
Regarding `CC1(Cn2cc(-c3ccc(C#N)nc3-c3ccc4c(c3)C(=O)NC4(C)C)cn2)CCCC1` [Example 64, 6-(1,1-dimethyl-3-oxoisoindolin-5-yl)-5-(1-((1-methylcyclopentyl)methyl)-1H-pyrazol-4-yl)picolinonitrile], the EC50 came out at 119 nM.
In the case of `C#CCN1Cc2ccc(-c3nc4c(cc3-c3cnn(CC5(C)CCCC5)c3)CCC4)cc2C1=O` [Example 123, 6-(3-(1-((1-methylcyclopentyl)methyl)-1H-pyrazol-4-yl)-6,7-dihydro-5H-cyclopenta[b]pyridin-2-yl)-2-(prop-2-yn-1-yl)isoindolin-1-one] it was 48 nM; in that of `CN1Cc2ccc(-c3nc4c(cc3-c3cnn(CC5(C)CCCC5)c3)CCC4=O)cc2C1=O` [Example 124, 2-(2-Methyl-3-oxoisoindolin-5-yl)-3-(1-((1-methylcyclopentyl)methyl)-1H-pyrazol-4-yl)-5,6-dihydro-7H-cyclopenta[b]pyridin-7-one], 30 nM.
With `CC1(Cn2cc(-c3ccc(F)nc3-c3ccc4c(c3)C(=O)N(C3CC3)C4)cn2)CCCC1` [Example 35, 2-cyclopropyl-6-(6-fluoro-3-(1-((1-methylcyclopentyl)methyl)-1H-pyrazol-4-yl)pyridin-2-yl)isoindolin-1-one], the EC50 was determined as 9 nM.
The value for `CC1(Cn2cc(-c3ccc(C#N)nc3-c3cnc4c(c3)C(=O)NC4)cn2)CCCC1` [Example 101, 5-(1-((1-methylcyclopentyl)methyl)-1H-pyrazol-4-yl)-6-(5-oxo-6,7-dihydro-5H-pyrrolo[3,4-b]pyridin-3-yl)picolinonitrile] was 18 nM; that for `Cc1cc(N)c(-c2cnn(CC3(C)CCCC3)c2)c(-c2ccc3c(c2)C(=O)N(C)C3)n1` [Example 62, 6-(4-amino-6-methyl-3-(1-((1-methylcyclopentyl)methyl)-1H-pyrazol-4-yl)pyridin-2-yl)-2-methylisoindolin-1-one] was 293 nM; that for `CN1Cc2ccc(-c3nc(CF)ccc3-c3cnn(CC4(C)CCCC4)c3F)cc2C1=O` [Example 68, 6-(3-(5-fluoro-1-((1-methylcyclopentyl)methyl)-1H-pyrazol-4-yl)-6-(fluoromethyl)pyridin-2-yl)-2-methylisoindolin-1-one] was 23 nM.
The value for `Cc1ccc(-c2cnn(CC3(C)CCCC3)c2F)c(-c2ccc3c(c2)C(=O)N(CC2CC2)C3)n1` [Example 30, 2-(cyclopropylmethyl)-6-(3-(5-fluoro-1-((1-methylcyclopentyl)methyl)-1H-pyrazol-4-yl)-6-methylpyridin-2-yl)isoindolin-1-one] was 18 nM; that for `CC1(Cn2cc(-c3cccnc3-c3ccc4c(c3)C(=O)NC4)cn2)CCCC1` [Example 24, 6-(3-(1-((1-methylcyclopentyl)methyl)-1H-pyrazol-4-yl)pyridin-2-yl)isoindolin-1-one] was 20 nM.
